Measurements as given in publication doi:10.1101/2024.10.09.617372v4, “Cholesterol differentially modulates the activity of opioid and muscarinic receptors via a common binding site” (biorxiv, 2025).

Molecular target: T1, M2 muscarinic receptor (M2) (Homo sapiens, UniProt P08172)
T1 construct: gene CHRM2; full-length human receptor, cDNA from Missouri S&T cDNA Resource Center, expressed in CHO cells; membranes
T1 sequence (P08172 1-466): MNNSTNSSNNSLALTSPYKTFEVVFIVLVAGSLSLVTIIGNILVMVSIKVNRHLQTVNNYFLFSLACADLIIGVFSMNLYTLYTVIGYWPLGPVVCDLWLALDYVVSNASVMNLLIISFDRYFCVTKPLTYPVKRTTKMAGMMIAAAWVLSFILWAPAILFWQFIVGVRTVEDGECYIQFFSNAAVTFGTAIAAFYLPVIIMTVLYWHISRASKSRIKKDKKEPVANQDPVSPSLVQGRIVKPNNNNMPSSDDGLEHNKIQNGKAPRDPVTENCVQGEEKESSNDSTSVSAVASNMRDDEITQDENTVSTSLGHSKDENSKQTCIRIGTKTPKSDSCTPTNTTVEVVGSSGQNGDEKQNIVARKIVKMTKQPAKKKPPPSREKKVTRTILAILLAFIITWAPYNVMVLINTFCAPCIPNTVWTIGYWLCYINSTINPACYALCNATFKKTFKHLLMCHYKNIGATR
Assay: radioligand saturation binding, CHO membranes
Details: labelled compound; […] h, […] °C, pH […]

**Q.** With `C[N+]1(C)[C@@H]2C[C@@H](OC(=O)[C@H](CO)c3ccccc3)C[C@H]1[C@@H]1O[C@@H]12` [[3H]N-methylscopolamine] as the compound, how does the KD read?
**A.** equilibrium dissociation constant KD, expressed in nM, of [^3H]NMS (muscarinic)
